# Patent US20250281480A1, “PHARMACEUTICAL DRY POWDER INHALATION FORMULATION” (Bayer Aktiengesellschaft, priority 2021, published 2025)
# Where “and” joins values, the source holds several entries; their conditions need not be identical. Equal values may be shown once.
# Tested on: anesthetized PAH minipigs
# Test: PAH minipig, intratracheal application of dry powder formulations and of different hydrates (PAP, BP)
# Assay type: in vivo, Göttingen Minipigs
# Settings: for efficacy with regard to PAP reduction and systemic BP reduction: micronized hydrates; for PAP(mean) / BP (mean): per animal; for % changes vs. baseline on PAP: intratracheal application
# Procedure: Healthy Göttingen Minipigs® Ellegaard (Ellegaard, Denmark) of both sexes and having a weight of 2-6 kg were used. The animals were sedated by i.m. administration of about 25 mg/kg ketamine and about 10 mg/kg azaperone. Anaesthesia was initiated by i.v. administration of about 2 mg/kg ketamine and about 0.3 mg/kg midazolam. Maintenance of anaesthesia was by i.v. administration of about 7.5-30 mg/kg/h ketamine and about 1-4 mg/kg/h midazolam (rate of infusion 1-4 ml/kg/h) and about 150 μg/kg/h pancuronium bromide (for example Pancuronium-Actavis). After intubation, the animals were ventilated by the ventilator at a constant respiratory volume (10-12 ml/kg, 35 breaths/min; Avea®, Viasys Healthcare, USA, or Engström Carestation, GE Healthcare, Freiburg, Germany) such that an end-tidal CO2 concentration of about 5% was achieved. Ventilation was performed with room air, enriched with about 40% oxygen (normoxia). For the measurement of the haemodynamic parameters such as pulmonary arterial pressure (PAP), blood pressure (BP) and heart rate (HR), catheters were inserted into the carotid artery to measure the blood pressure, and a Swan-Ganz® catheter was introduced in a flow-directed manner via the jugular vein into the pulmonary artery. The haemodynamic signals were recorded and evaluated by means of pressure transducers (Combitransducer, B. Braun, Melsungen, Germany)/amplifiers and Ponemah® as data acquisition software.
# About 0.3-0.75 μg/kg/min of 9,11-didesoxy-9α,11α-epoxymethanoprostaglandine F2α (U-44069; Sigma, cat. no. D0400, or Cayman Chemical Company, cat. no. 16440), dissolved in physiological saline, were infused to achieve an increase of the mean pulmonary arterial pressure to values of over 25 mmHg.
# After characterization of the effects of comparative example 11 after nebulization of compound solutions, in a further step the effects of crystalline forms of comparative example 11, e.g. sesquihydrate, e.g. example 6e on PAP and BP after inhaled application of different dry powder lactose formulations (table 52) were studied in anesthetized PAH minipigs.
# As reference pure Lactose vehicle was applied in the beginning of each experiment.
# [1] = % vs. prevalues, 375 μg/kg i.t., time 60, each animal
# [2] = % vs. prevalues, 375 μg/kg i.t., time 70, each animal
# [3] = 375 μg/kg i.t., time 0, Sesquihydrate
# [4] = 375 μg/kg i.t., time −10, Sesquihydrate
compound,measurement,setting,value
"O.O=C(O)c1ccc(CCN(CCc2ccccc2OCc2ccc(-c3ccc(C(F)(F)F)cc3)cc2Cl)[C@H]2CCCc3nc(C(=O)O)ccc32)cc1.O=C(O)c1ccc(CCN(CCc2ccccc2OCc2ccc(-c3ccc(C(F)(F)F)cc3)cc2Cl)[C@H]2CCCc3nc(C(=O)O)ccc32)cc1 [Example 6a, (5S)—{[2-(4-Carboxyphenyl)ethyl][2-(2-{[3-chloro-4′-(trifluoromethyl)biphenyl-4-yl]methoxy}phenyl)-ethyl]amino}-5,6,7,8-tetrahydroquinoline-2-carboxylic Acid Semihydrate]",efficacy with regard to PAP reduction and systemic BP reduction,375 μg/kg i.t.,comparable efficacy
same,PAP(mean),"375 μg/kg i.t., time 170",24.0 mmHg and 32.4 mmHg and 29.9 mmHg
same,BP (mean),"375 μg/kg i.t., time 180",94 mmHg
same,PAP(mean),"375 μg/kg i.t., time 180",23.7 mmHg
same,BP (mean),"375 μg/kg i.t., time 190",94 mmHg and 93 mmHg
same,PAP(mean),"375 μg/kg i.t., time 190",24.4 mmHg and 32.4 mmHg and 29.2 mmHg
same,PAP(mean),"375 μg/kg i.t., time 200",24.8 mmHg and 32.4 mmHg and 29.4 mmHg
same,BP (mean),"375 μg/kg i.t., time 210",91 mmHg
same,PAP(mean),"375 μg/kg i.t., time 210",24.8 mmHg and 29.2 mmHg
same,PAP(mean),"375 μg/kg i.t., time 220",24.7 mmHg and 29.1 mmHg
same,PAP(mean),"375 μg/kg i.t., time 230",24.0 mmHg
same,BP (mean),"375 μg/kg i.t., time 240",77 mmHg
same,PAP(mean),"375 μg/kg i.t., time 240",24.1 mmHg and 28.1 mmHg
same,BP (mean),"375 μg/kg i.t., time 250",76 mmHg
same,PAP(mean),"375 μg/kg i.t., time 250",24.2 mmHg and 28.1 mmHg
same,BP (mean),"375 μg/kg i.t., time 260",76 mmHg
same,PAP(mean),"375 μg/kg i.t., time 260",24.1 mmHg and 30.6 mmHg and 28.1 mmHg
same,BP (mean),"375 μg/kg i.t., time 270",76 mmHg
same,PAP(mean),"375 μg/kg i.t., time 270",24.4 mmHg and 30.6 mmHg and 27.8 mmHg
same,BP (mean),"375 μg/kg i.t., time 280",75 mmHg
same,PAP(mean),"375 μg/kg i.t., time 280",24.3 mmHg and 28.0 mmHg
same,BP (mean),"375 μg/kg i.t., time 290",75 mmHg
same,PAP(mean),"375 μg/kg i.t., time 290",24.1 mmHg and 27.6 mmHg
same,BP (mean),"375 μg/kg i.t., time 300",77 mmHg
same,PAP(mean),"375 μg/kg i.t., time 300",23.7 mmHg and 30.5 mmHg and 27.7 mmHg
same,BP,[1],100.6% and 99.7% and 97.2%
same,PAP,[1],100.7% and 99.4% and 99.2%
same,BP,[2],102.6%
same,PAP,[2],94.7%
"O.O.O.O=C(O)c1ccc(CCN(CCc2ccccc2OCc2ccc(-c3ccc(C(F)(F)F)cc3)cc2Cl)[C@H]2CCCc3nc(C(=O)O)ccc32)cc1.O=C(O)c1ccc(CCN(CCc2ccccc2OCc2ccc(-c3ccc(C(F)(F)F)cc3)cc2Cl)[C@H]2CCCc3nc(C(=O)O)ccc32)cc1 [Example 6e, (5S)—{[2-(4-Carboxyphenyl)ethyl][2-(2-{[3-chloro-4′-(trifluoromethyl)biphenyl-4-yl]methoxy}phenyl)-ethyl]amino}-5,6,7,8-tetrahydroquinoline-2-carboxylic Acid Sesquihydrate]",efficacy with regard to PAP reduction and systemic BP reduction,375 μg/kg i.t.,comparable efficacy
same,BP (mean),[3],104 mmHg
same,PAP(mean),[3],41.9 mmHg
same,BP (mean),[4],107 mmHg
same,PAP(mean),[4],36.4 mmHg and 37.5 mmHg
same,% changes vs. baseline on PAP,"time 80 (baseline = 100), each animal",100.0%
same,% changes vs. baseline on PAP,"time 90, each animal, Sesquihydrate",98.9% and 103.6% and 99.8%
same,% changes vs. baseline on PAP,"time 100, each animal, Sesquihydrate",99.5% and 101.4% and 97.3%
same,% changes vs. baseline on PAP,"time 110, each animal, Sesquihydrate",89.3% and 98.7% and 86.8%
same,% changes vs. baseline on PAP,"time 120, each animal, Sesquihydrate",84.0% and 95.6% and 75.7%
same,% changes vs. baseline on PAP,"time 130, each animal, Sesquihydrate",78.9% and 93.7% and 70.2%
same,% changes vs. baseline on PAP,"time 140, each animal, Sesquihydrate",75.2% and 91.8% and 67.5%
same,% changes vs. baseline on PAP,"time 150, each animal, Sesquihydrate",74.0% and 76.0% and 65.4%
same,% changes vs. baseline on PAP,"time 160, each animal, Sesquihydrate",71.0% and 79.5% and 65.9%
same,% changes vs. baseline on PAP,"time 170, each animal, Sesquihydrate",68.5% and 74.3% and 61.5%
same,% changes vs. baseline on PAP,"time 180, each animal, Sesquihydrate",63.2% and 80.8% and 62.0%
same,% changes vs. baseline on PAP,"time 190, each animal, Sesquihydrate",61.5% and 80.8% and 58.6%
same,% changes vs. baseline on PAP,"time 200, each animal, Sesquihydrate",62.3% and 80.3% and 60.2%
same,% changes vs. baseline on PAP,"time 210, each animal, Sesquihydrate",61.0% and 80.7% and 59.4%
same,% changes vs. baseline on PAP,"time 220, each animal, Sesquihydrate",59.5% and 86.3% and 57.8%
same,% changes vs. baseline on PAP,"time 230, each animal, Sesquihydrate",58.6% and 82.6% and 57.8%
same,% changes vs. baseline on PAP,"time 240, each animal, Sesquihydrate",59.3% and 81.5% and 57.6%
same,% changes vs. baseline on PAP,"time 250, each animal, Sesquihydrate",59.3% and 82.2% and 56.1%
same,% changes vs. baseline on PAP,"time 260, each animal, Sesquihydrate",58.8% and 82.7% and 57.6%
same,% changes vs. baseline on PAP,"time 270, each animal, Sesquihydrate",59.9% and 78.3% and 55.4%
same,% changes vs. baseline on PAP,"time 280, each animal, Sesquihydrate",58.4% and 78.3% and 55.9%
same,% changes vs. baseline on PAP,"time 290, each animal, Sesquihydrate",57.4% and 79.6% and 53.9%
same,% changes vs. baseline on PAP,"time 300, each animal, Sesquihydrate",60.1% and 78.7% and 54.5%
same,% changes vs. baseline on PAP,"time 310, each animal, Sesquihydrate",58.4% and 77.6% and 53.7%
same,% changes vs. baseline on PAP,"time 320, each animal, Sesquihydrate",61.8% and 76.3% and 55.1%
same,% changes vs. baseline on PAP,"time 330, each animal, Sesquihydrate",61.3% and 74.8% and 53.0%
same,PAP,"time 20 min, lactose vehicle first, test powder 1.5 mg/4 kg i.t. @90 min, per animal (n = 3), Sesquihydrate",42.0 mmHg and 37.5 mmHg
same,BP,"time 30 min, lactose vehicle first, test powder 1.5 mg/4 kg i.t. @90 min, per animal (n = 3)",104 mmHg
same,PAP,"time 30 min, lactose vehicle first, test powder 1.5 mg/4 kg i.t. @90 min, per animal (n = 3), Sesquihydrate",41.9 mmHg and 37.1 mmHg and 37.5 mmHg
same,PAP,"time 40 min, lactose vehicle first, test powder 1.5 mg/4 kg i.t. @90 min, per animal (n = 3), Sesquihydrate",42.0 mmHg and 37.3 mmHg and 38.6 mmHg
same,PAP,"time 50 min, lactose vehicle first, test powder 1.5 mg/4 kg i.t. @90 min, per animal (n = 3), Sesquihydrate",41.4 mmHg and 37.4 mmHg and 39.8 mmHg
same,PAP,"time 60 min, lactose vehicle first, test powder 1.5 mg/4 kg i.t. @90 min, per animal (n = 3), Sesquihydrate",41.4 mmHg and 36.8 mmHg and 41.2 mmHg
same,PAP,"time 70 min, lactose vehicle first, test powder 1.5 mg/4 kg i.t. @90 min, per animal (n = 3), Sesquihydrate",41.0 mmHg and 37.4 mmHg and 41.3 mmHg
same,PAP,"time 80 min, lactose vehicle first, test powder 1.5 mg/4 kg i.t. @90 min, per animal (n = 3), Sesquihydrate",40.9 mmHg and 38.1 mmHg and 40.8 mmHg
same,BP,"time 90 min, lactose vehicle first, test powder 1.5 mg/4 kg i.t. @90 min, per animal (n = 3)",102 mmHg
same,PAP,"time 90 min, lactose vehicle first, test powder 1.5 mg/4 kg i.t. @90 min, per animal (n = 3), Sesquihydrate",40.4 mmHg and 39.5 mmHg
